Test results as given in patent publication US20250332173A1, “COMPOUNDS AND METHODS FOR MODULATING NUCLEIC ACID SPLICING” (REMIX THERAPEUTICS INC., priority 2021, published 2025).
pIC50: −log10 of the molar value. Like-named read-outs stand apart in the source and are kept apart here.

Legend:
HTT mRNA = test: RT-qPCR splicing assay, HTT canonical junction (CJ) and alternative junction (AJ) mRNA; assay type: cell-based, human; details: Homo sapiens; for AC50: increase in HTT alternative junction (AJ) mRNA, read-out: HTT AJ AC50
Procedure, shortened: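 Read-out is one-step RT-qPCR on cell lysates detecting the exon-exon junction of each isoform, normalized to a housekeeping gene (PPIA in A673, GAPDH or GUSB in K562).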

SMN2 mRNA = test: RT-qPCR splicing assay, SMN2 canonical junction (CJ) mRNA; assay type: cell-based, human; details: Homo sapiens; Table 5 panel; canonical junction qPCR; compound concentration having 50% response in CJ decrease; read-out: SMN2 IC50 (decrease in CJ mRNA levels)
Procedure, shortened: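 A673 or K562 cells were treated for 24 h at 37 °C with compound in 11-point 3-fold dilution (top 10 uM final, DMSO ≤0.25%). Lysates then went to one-step RT-qPCR measuring canonical-junction mRNA, normalized to GAPDH, GUSB or PPIA.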

[1] = decrease in HTT canonical junction (CJ) mRNA, RT-qPCR, read-out: HTT CJ IC50
[2] = Table 5 panel, canonical junction qPCR, compound concentration having 50% response in CJ decrease, read-out: HTT IC50 (decrease in CJ mRNA levels)

SMILES | pIC50 (HTT mRNA; [1]) | pIC50 (HTT mRNA; [2]) | pIC50 (SMN2 mRNA) | AC50 (HTT mRNA; RT-qPCR)
Cc1cn2nc(-c3cc(N)c4c(=O)n([C@H]5CCNC5)ccc4c3)cc(C)c2n1 [Compound 645, 8-amino-6-(2,8-dimethylimidazo[1,2-b]pyridazin-6-yl)-2-[(3S)-pyrrolidin-3-yl]isoquinolin-1-one] | < 5.00 | 5.00 to 6.00 | 6.00 to 7.00 | 1000 to 10000 nM
CNc1cc(-c2cc(C)c3nc(C)cn3n2)cc2ccn([C@H]3CCNC3)c(=O)c12 [Compound 647, 6-(2,8-dimethylimidazo[1,2-b]pyridazin-6-yl)-8-(methylamino)-2-[(3S)-pyrrolidin-3-yl]isoquinolin-1-one] | < 5.00 | 5.00 to 6.00 | 6.00 to 7.00 | 1000 to 10000 nM
CNc1cc(-c2cc(C)c3nc(C)cn3n2)cc2ccn([C@@H]3CCNC3)c(=O)c12 [Compound 648, 6-(2,8-dimethylimidazo[1,2-b]pyridazin-6-yl)-8-(methylamino)-2-[(3R)-pyrrolidin-3-yl]isoquinolin-1-one] | < 5.00 | < 5.00 | 6.00 to 7.00 | > 10000 nM
CC(=O)Nc1cc(-c2cc(C)c3nc(C)cn3n2)cc2ccn([C@H]3CCNC3)c(=O)c12 [Compound 649, N-[6-(2,8-dimethylimidazo[1,2-b]pyridazin-6-yl)-1-oxo-2-[(3S)-pyrrolidin-3-yl]-8-isoquinolyl]acetamide] | 5.00 to 6.00 | 5.00 to 6.00 | 6.00 to 7.00 | 1000 to 10000 nM
CC(=O)Nc1cc(-c2cc(C)c3nc(C)cn3n2)cc2ccn([C@@H]3CCNC3)c(=O)c12 [Compound 650, N-[6-(2,8-dimethylimidazo[1,2-b]pyridazin-6-yl)-1-oxo-2-[(3R)-pyrrolidin-3-yl]-8-isoquinolyl]acetamide] | < 5.00 | < 5.00 | 5.00 to 6.00 | > 10000 nM
Cn1cc2cc(-c3ncc4c(=O)n(C5CCNCC5)ccc4n3)c(O)c(F)c2n1 [Compound 1123] | 6.00 to 7.00 | > 7.00 | > 7.00 | < 100 nM
CNC1CCN(c2ccc3cc(-c4cc(C)c5nc(C)cn5n4)ccn3c2=O)C1 (stereo not drawn) [Compound 1158] | 5.00 to 6.00 | 6.00 to 7.00 | > 7.00 | 100 to 1000 nM
Cc1cn2nc(-c3ccn4c(=O)c(C5CCNCC5)ccc4c3)cc(C)c2n1 [Compound 1181] | > 7.00 | > 7.00 | > 7.00 | < 100 nM
Cc1cn2nc(-c3ccn4c(=O)c(C5=CCNCC5)ncc4c3)cc(C)c2n1 [Compound 1182] | 6.00 to 7.00 | 6.00 to 7.00 | 6.00 to 7.00 | 100 to 1000 nM

Continued, in another order:

pIC50 (HTT mRNA; [1]) | pIC50 (HTT mRNA; [2]) | pIC50 (SMN2 mRNA) | SMILES | AC50 (HTT mRNA; RT-qPCR)
5.00 to 6.00 | 6.00 to 7.00 | > 7.00 | Cc1cn2cc(-c3cc(F)c4c(=O)n([C@@H]5C[C@@H](C)N[C@@H](C)C5)ccc4c3)cc(F)c2n1 [Compound 642, 2-[(2S,6R)-2,6-dimethyl-4-piperidyl]-8-fluoro-6-(8-fluoro-2-methyl-imidazo[1,2-a]pyridin-6-yl)isoquinolin-1-one] | 100 to 1000 nM
< 5.00 | < 5.00 | 6.00 to 7.00 | Cc1cn2cc(-c3cc(F)c4c(=O)n([C@H]5CNC[C@@H]5F)ccc4c3)cc(F)c2n1 [Compound 644] | > 10000 nM
< 5.00 | < 5.00 | 6.00 to 7.00 | Cc1cn2nc(-c3cc(N)c4c(=O)n([C@@H]5CCNC5)ccc4c3)cc(C)c2n1 [Compound 646, 8-amino-6-(2,8-dimethylimidazo[1,2-b]pyridazin-6-yl)-2-[(3R)-pyrrolidin-3-yl]isoquinolin-1-one] | > 10000 nM
6.00 to 7.00 | > 7.00 | > 7.00 | Cc1cn2cc(-c3cc(F)c4c(=O)n(C5CC(C)NC(C)C5)ccc4c3)cc(F)c2n1 (stereo not drawn) [Compound 651] | < 100 nM
< 5.00 | < 5.00 | 6.00 to 7.00 | Cc1cn2cc(-c3cc(F)c4c(=O)n([C@H]5CNC[C@H]5C)ccc4c3)cc(F)c2n1 [Compound 652, 8-fluoro-6-(8-fluoro-2-methyl-imidazo[1,2-a]pyridin-6-yl)-2-[(3R,4R)-4-methylpyrrolidin-3-yl]isoquinolin-1-one] | > 10000 nM
< 5.00 | < 5.00 | 6.00 to 7.00 | Cc1cn2cc(-c3cc(F)c4c(=O)n([C@@H]5CNC[C@@H]5C)ccc4c3)cc(F)c2n1 [Compound 653, 8-fluoro-6-(8-fluoro-2-methyl-imidazo[1,2-a]pyridin-6-yl)-2-[(3S,4S)-4-methylpyrrolidin-3-yl]isoquinolin-1-one] | > 10000 nM
